“And” between values parts separate entries of the source, which are not always exact repeats. Identical values can stand only once. Like-named read-outs stand apart in the source and are kept apart here.
What was measured:
ecNOS protein = conditions: for increase in ecNOS protein levels compared to ox-LDL alone: co-treatment with ox-LDL, simvastatin 0.1 mmol/L; for ecNOS protein levels, % of basal levels: hypoxia (3% O2)
ecNOS mRNA [1] = test: ecNOS mRNA half-life in the presence of actinomycin D; type: cell-based, human; conditions: for half-life of ecNOS mRNA (t1/2) / ecNOS mRNA half-life: actinomycin D; for ecNOS mRNA half-life: simvastatin 1 mM
ecNOS mRNA [2] = test: Quantitative RT-PCR of ecNOS mRNA in mouse aortae and brains; type: in vivo, SV-129 mice; conditions: dose-dependent, 14 days
Source text: Total RNA from mouse aortae and brains was isolated by the guanidinium isothiocyanate method and reverse transcribed using oligo-dT (mRNA Preamplification reagents; Gibco BRL) and Taq ploymerase (Perkin-Elmer). One tenth of the sDNA was used as template for the PCR reaction. […] [NT] ID NO. 1) and 3'Primer: […] For amplification of glyceraldehyde 3-phosphate dehydrogenase (GAPDH), 0.1 nmol of the following primers amplifying a 452-bp fragment were used: 5'Primer: [NT] ID NO. 3) and 3' Primer: […] NO. 4). Denaturing was performed at 94° C. for 30 s, annealing at 60° C. for 30 s, and elongation at 72° C. for 60 s.

ecNOS gene transcription = test: Nuclear run-on assay of ecNOS gene transcription
ecNOS mRNA [3] = test: Northern blotting of ecNOS steady-state mRNA in endothelial cells; type: cell-based, human; parameters: ecNOS mRNA levels increased to / ecNOS mRNA levels, % of basal levels / effect on basal ecNOS mRNA levels: unit of the concentration uncertain; conditions: for increase in ecNOS mRNA levels compared to ox-LDL: co-treatment with ox-LDL, simvastatin 0.1 mmol/L; for ecNOS mRNA levels, % of basal levels: hypoxia + simvastatin (1 (unit uncertain))
Description: Equal amounts of total RNA (10-20 mg) were separated by 1.2% formaldehyde-agarose gel electrophoresis and transferred overnight onto Hybond nylon membranes. […] All Northern blots were subjected to stringent washing conditions (0.2× SSC/0.1% SDS at 65° C.) prior to autoradiography. RNA loading was determined by rehybridization with human GAPDH probe.

[4] = system: cerebral ischemia, left middle cerebral artery (MCA) occlusion; test: Murine model of cerebral vascular ischemia (MCA occlusion); type: in vivo, SV-129 mice
Source text: Ischemia was produced by occluding the left middle cerebral artery (MCA) with a coated 8.0 nylon monofilament under anesthesia as described (Huang, Z et al., J Cereb Blood Flow Metab, 1996, 16:981-987, Huang, Z et al., Science, 1994, 265:1883-1885, Hara, H et al., J Cereb Blood Flow Metab, 1997, 1:515-526). Arterial blood pressure, heart rate, arterial oxygen pressure, and partial pressure of carbon dioxide were monitored as described (Huang, Z et al., J Cereb Blood Flow Metab, 1996, 16:981-987, Huang, Z et al., Science, 1994, 265:1883-1885, Hara, H et al., J Cereb Blood Flow Metab, 1997, 1:515-526). The filaments were withdrawn after 2 hours and after 24 h, mice were either sacrificed or tested for neurological deficits using a well-established, standardized, observer-blinded protocol as described (Huang, Z et al., J Cereb Blood Flow Metab, 1996, 16:981-987, Huang, Z et al., Science, 1994, 265:1883-1885, Hara, H et al., J Cereb Blood Flow Metab, 1997, 1:515-526). The motor deficit score range from 0 (no deficit) to 2 (complete deficit).
Brains were divided into five coronal 2-mm sections using a mouse brain matrix (RBM-200C, Activated Systems, Ann Arbor, Mich., USA). Infarction volume was quantitated with an image analysis system (M4, St. Catharines, Ontario, Canada) on 2% 2,3,5-triphenyltetrazolium chloride stained 2-mm slices. The levels of serum cholesterol, creatinine and transaminases were determined by the Tufts University Veterinary Diagnostic Laboratory (Grafton, Mass.).

ecNOS [5] = test: ecNOS activity, LNMA-inhibitable nitrite production (modified nitrite assay); type: cell-based, human
ecNOS [6] = test: ecNOS activity from tissues, arginine to citrulline conversion in mouse aortae; type: in vivo, SV-129 mice; conditions: 2 mg/kg, 14 days
Description: The ecNOS activities in mice aortae and brains were measured by the conversion of [^3H]arginine to [^3H]citrulline in the presence and absence of LNMA (5 mM) as described earlier.

human endothelial cells = test: Cellular viability (cell count, morphology, Trypan blue exclusion); conditions: simvastatin 0.01 to 0.1 mmol/L, lovastatin 10 mmol/L, up to 96 h
[7] = ox-LDL + simvastatin 0.1 mmol/L
[8] = wild-type mice, 2 mg/kg, 14 days
[9] = simvastatin 1 mM alone (20% O2)

`CCC(C)(C)C(=O)O[C@H]1C[C@@H](C)C=C2C=C[C@H](C)[C@H](CC[C@@H]3C[C@@H](O)CC(=O)O3)[C@H]21` [simvastatin] was tested, and the “increase in ecNOS protein levels compared to ox-LDL alone” value (“increase in ecNOS protein levels” for short) (ecNOS protein; 24 h) was 1.3 fold, the “increase in ecNOS protein levels” value (ecNOS protein; 72 h) was 3.3 fold and the “increase in ecNOS protein levels” value (ecNOS protein; 96 h) was 8.9 fold. For the same compound, the “ecNOS protein levels, % of basal levels” value (ecNOS protein; 48 h, simvastatin 1 mM) was 159±13%, the “ecNOS protein levels, % of basal levels” value (ecNOS protein; 48 h, simvastatin 10 mM) was 223±21% and the “effect on ecNOS expression” value (ecNOS protein; not chemically-activated statin (10)) was “no effect”. The “decrease in ecNOS protein” value (ecNOS protein; ox-LDL + simvastatin 0.01 mmol/L, 48 h) was 57%±8%, the “decrease in ecNOS protein level” value (ecNOS protein; ox-LDL + simvastatin 0.1 mmol/L, 24 h) was 15% (2% and the “decrease in ecNOS protein” value (ecNOS protein; ox-LDL + simvastatin 0.1 mmol/L, 48 h) was 4%±7%. The “ecNOS protein levels increased above basal expression” value (ecNOS protein; ox-LDL + simvastatin 0.1 mmol/L, 72 h) was 110% (6%, the “ecNOS protein levels increased above basal expression” value (ecNOS protein; ox-LDL + simvastatin 0.1 mmol/L, 96 h) was 124% (6% and the “ecNOS protein levels above baseline” value (ecNOS protein; ox-LDL + simvastatin 1 mmol/L, 48 h) was 146%±9% and 150% (8%. The “upregulation of ecNOS expression” value (ecNOS protein; simvastatin alone (1)) was 2.9 fold, the “prolongation of ecNOS mRNA half-life” value (ecNOS mRNA [1]; ox-LDL + simvastatin 0.1 mmol/L, versus ox-LDL) was 1.6 fold and the “half-life of ecNOS mRNA (t1/2)” value (ecNOS mRNA [1]; [7]) was 22 ± 3 h. For the same compound, the “ecNOS mRNA half-life” value (ecNOS mRNA [1]; hypoxic) was 38 ± 4 h, the “ecNOS mRNA half-life” value (ecNOS mRNA [1]; normoxic) was 46 ± 4 h and the “prolongation of ecNOS mRNA half-life over baseline” value (ecNOS mRNA [1]; simvastatin alone) was 1.3 fold. The “half-life of ecNOS mRNA (t1/2)” value (ecNOS mRNA [1]; simvastatin alone) was 43 ± 4 h, the “increase of ecNOS message compared to that of GAPDH in aortae” value (ecNOS mRNA [2]) was 3 fold and the “decrease in ecNOS gene transcription” value (ecNOS gene transcription; hypoxia + simvastatin 1 mM) was 83±6%. For the same compound, the “increase in ecNOS gene transcription” value (ecNOS gene transcription; simvastatin alone, normoxic condition) was 20±5%, the “increase in ecNOS mRNA levels compared to ox-LDL” value (ecNOS mRNA [3]; 48 h) was 6.3 fold and the “increase in ecNOS mRNA levels compared to ox-LDL” value (ecNOS mRNA [3]; 72 h) was 14.5 fold. For the same compound, the “ecNOS mRNA levels, % of basal levels” value (ecNOS mRNA [3]; 24 h) was 195±12%, the “ecNOS mRNA levels, % of basal levels” value (ecNOS mRNA [3]; 48 h) was 530±30% and the “ecNOS mRNA levels increased to” value (ecNOS mRNA [3]; simvastatin (1 (unit uncertain)) alone, normoxia) was 340±24%. For the same compound, the “increase in cerebral blood flow over basal values” ([4]; 2 mg/kg) was 23%, the “improvement of neurological motor deficit score compared to controls” value ([4]; 2 mg/kg, 14 days) was roughly 2 fold and the “neurological motor deficit score” value ([4]; 2 mg/kg, 14 days, 2 h MCA occlusion, 22 hours of reperfusion, score 0 to 2) was 0.8±0.2. For the same compound, the “increase in cerebral blood flow over basal values” ([4]; 20 mg/kg) was 35%, the “persistence of the effect on cerebral infarct size” value ([4]; mouse, in vivo) was “up to 3 days” and the cerebral infarct size [4, 8] was 73.8±8.5 mm3. The “smaller cerebral infarct sizes compared to untreated animals” value [4, 8] was 25%, the “decrease in ecNOS activity compared to untreated cells” value (ecNOS [5]; [7]) was 28±3% and the ecNOS-dependent nitrite production (ecNOS [5]; [7]) was 6.4±0.3 nmol/500,000 cells/24 h. The ecNOS-dependent nitrite production (ecNOS [5]; ox-LDL + simvastatin 1 mmol/L) was 12.8±2.7 nmol/500,000 cells/24 h, the “increase in ecNOS activity compared to baseline” value (ecNOS [5]; ox-LDL + simvastatin 1 mmol/L) was 45±6% and the nitrite production (ecNOS [5]; [9]) was 30±6.5 nmol/500,000 cells/24 h. The “upregulation of nitrite production” value (ecNOS [5]; [9]) was 5 fold, the “increase in ecNOS activity over basal activity” value (ecNOS [5]; simvastatin 1 mM, 3% O2, 24 h) was 3 fold and the nitrite production (ecNOS [5]; simvastatin 1 mM, 3% O2, 24 h) was 18±5.0 nmol/500,000 cells/24 h. The “ecNOS activity in aortae” value (ecNOS [6]) was 0.39±0.09 U/mg protein and the “noticeable adverse effects on human endothelial cell” value (human endothelial cells) was “Neither simvastatin (0.01 to 0.1 mmol/L) nor lovastatin (10 mmol/L) produced any noticeable adverse effects”.

From patent publication US6696480B2, “Upregulation of type III endothelial cell nitric oxide synthase by agents that disrupt actin cytoskeletal organization” (Brigham and Women's Hospital, Inc., priority 1998, dated 2004)
